This passage reports IC50 results from patent US10196391B2 (Hoffmann-La Roche Inc., priority 2014, dated 2019).

This test deals with HBsAg. As to the kind of experiment: HBsAg assay (CLIA) in HepG2.2.15 cells. In kind it is cell-based, HBV. As to conditions: Hepatitis B virus, HepG2.2.15, read-out: IC50 (HBsAg assay). As to the method: HepG2.2.15 cells (Acs et al. Proc Natl Acad Sci USA, 84, (1987), 4641-4), a constitutively HBV-expressing cell line were cultured in DMEM+Glutamax-I medium (Invitrogen, Carlsbad, Calif., USA), supplemented with 10% fetal bovine serum (Invitrogen) and G418 (Invitrogen) at a final concentration of 200 mg/L and maintained in 5% CO2 at 37° C.
HepG2.2.15 cells were seeded in duplicate into white, 96-well plates at 1.5×10^4 cells/well. The cells were treated with a three-fold serial dilution series of the compounds in DMSO. The final DMSO concentration in all wells was 1% and DMSO was used as no drug control.
The HBsAg chemiluminescence immunoassay (CLIA) kit (Autobio Diagnostics Co., Zhengzhou, China, Catalog number: CL0310-2) was used to measure the levels of secreted HBV antigens semi-quantitatively. For the detection 50 μL/well culture supernatant was used and HBsAg was quantified using HBsAg chemiluminescence immunoassay (CLIA) kit (Autobio Diagnostics Co., Zhengzhou, China, Catalog number: CL0310-2), 50 μL of the supernatant was transferred to the CLIA assay plate and 50 μL of enzyme conjugate reagent was added into each well. The plates were sealed and gently agitated for 1 hour at room temperature. The supernatant-enzyme-mixture was discarded and wells were washed 6 times with 300 μL of PBS. The residual liquid was removed by plating the CLIA plate […] on absorbent tissue paper. 25 μL of substrates A and B were added to each well. Luminance was measured using a luminometer (Mithras LB 940 Multimode Microplate Reader) after 10 minutes incubation. Dose-response curves were generated and the IC50 value was extrapolated by using the E-WorkBook Suite (ID Business Solutions Ltd., Guildford, UK). The IC50 was defined as the compound concentration (or conditioned media log dilution) at which HBsAg secretion was reduced by 50% compared to the no drug control.
The compounds according to formula I were tested for their capacity to inhibit HBsAg as described herein.

Molecules are shown by their SMILES.

Take `COc1nc(N2CCc3nc(-c4ncccn4)ncc3C2)ccc1F` [Example 72, 6-(5-fluoro-6-methoxy-2-pyridyl)-2-pyrimidin-2-yl-7,8-dihydro-5H-pyrido[4,3-d]pyrimidine]: the IC50 (commonly the concentration at which inhibition is half-maximal) came out at 1430 nM.

On to `O=C(NCC(F)(F)F)c1cc(F)cc(N2CCc3nc(-c4ncccn4)ncc3C2)c1` [Example 104, 3-fluoro-5-(2-pyrimidin-2-yl-7,8-dihydro-5H-pyrido[4,3-d]pyrimidin-6-yl)-N-(2,2,2-trifluoroethyl)benzamide], for which the IC50 worked out at 1240 nM.

Consider `Clc1cc(Cl)nc(N2CCc3nc(-c4ncccn4)ncc3C2)c1` [Example 113, 6-(4,6-dichloro-2-pyridyl)-2-pyrimidin-2-yl-7,8-dihydro-5H-pyrido[4,3-d]pyrimidine], for which the IC50 came to 161 nM.

As for `COc1cc(N2CCc3nc(-c4ncccn4)ncc3C2)cc(F)c1C#N` [Example 77, 2-fluoro-6-methoxy-4-(2-pyrimidin-2-yl-7,8-dihydro-5H-pyrido[4,3-d]pyrimidin-6-yl)benzonitrile], the IC50 is 265 nM.

With `COc1cc(Cl)nc(N2CCc3nc(-c4ncccn4)ncc3C2)c1` [Example 108, 6-(6-chloro-4-methoxy-2-pyridyl)-2-pyrimidin-2-yl-7,8-dihydro-5H-pyrido[4,3-d]pyrimidine], the IC50 was found to be 263 nM.

Take `Clc1ccc(N2CCc3nc(-c4ccccn4)ncc3C2)cc1Cl` [Example 49, 6-(3,4-dichlorophenyl)-2-(2-pyridyl)-7,8-dihydro-5H-pyrido[4,3-d]pyrimidine]: the IC50 is 1070 nM.

`CS(=O)(=O)c1ccc(N2CCc3nc(-c4ccccn4)ccc3C2)cc1` [Example 89, 6-(4-methylsulfonylphenyl)-2-(2-pyridyl)-7,8-dihydro-5H-1,6-naphthyridine]: the IC50 came to 6720 nM.

In the case of `COc1cccc(-c2ncc3c(n2)CCN(c2cc(F)c(F)c(OC)c2)C3)n1` [Example 25, 6-(3,4-difluoro-5-methoxy-phenyl)-2-(6-methoxy-2-pyridyl)-7,8-dihydro-5H-pyrido[4,3-d]pyrimidine], the IC50 came to 16000 nM.

On to `COCCOc1cc(N2CCc3nc(-c4ccccn4)ncc3C2)ccc1OC` [Example 58, 6-[4-methoxy-3-(2-methoxyethoxy)phenyl]-2-(2-pyridyl)-7,8-dihydro-5H-pyrido[4,3-d]pyrimidine], for which the IC50 worked out at 20200 nM.

Take `CCOC(=O)c1ccc(N2CCc3nc(-c4ccccn4)ncc3C2)cc1` [Example 31, ethyl 4-[2-(2-pyridyl)-7,8-dihydro-5H-pyrido[4,3-d]pyrimidin-6-yl]benzoate]: the IC50 was determined as 16900 nM.

In the case of `COc1cc(N2CCc3nc(-c4ccccn4)ncc3C2)ccc1C#N` [Example 60, 2-methoxy-4-[2-(2-pyridyl)-7,8-dihydro-5H-pyrido[4,3-d]pyrimidin-6-yl]benzonitrile], the IC50 was 371 nM.

With `COc1cc(N2CCc3nc(-c4cnccn4)ncc3C2)cc(F)c1F` [Example 28, 6-(3,4-difluoro-5-methoxy-phenyl)-2-pyrazin-2-yl-7,8-dihydro-5H-pyrido[4,3-d]pyrimidine], the IC50 turned out to be 455 nM.

With `CS(=O)(=O)c1ccc(N2CCc3nc(-c4ccccn4)ncc3C2)cc1` [Example 1, 6-(4-methylsulfonylphenyl)-2-(2-pyridyl)-7,8-dihydro-5H-pyrido[4,3-d]pyrimidine], the IC50 was 4240 nM.

Take `COc1cc(C#N)cc(N2CCc3nc(-c4ncccn4)ncc3C2)c1` [Example 76, 3-methoxy-5-(2-pyrimidin-2-yl-7,8-dihydro-5H-pyrido[4,3-d]pyrimidin-6-yl)benzonitrile]: the IC50 stood at 1510 nM.

`Fc1cc(N2CCc3nc(-c4ccccn4)ncc3C2)ccc1Br` [Example 52, 6-(4-bromo-3-fluoro-phenyl)-2-(2-pyridyl)-7,8-dihydro-5H-pyrido[4,3-d]pyrimidine]: the IC50 is 1970 nM.

In the case of `COCCOc1ccc(N2CCc3nc(-c4ccccn4)ncc3C2)cc1OC` [Example 57, 6-[3-methoxy-4-(2-methoxyethoxy)phenyl]-2-(2-pyridyl)-7,8-dihydro-5H-pyrido[4,3-d]pyrimidine], the IC50 was determined as 2170 nM.

Turning to `FC(F)(F)Oc1cccc(N2CCc3nc(-c4ncccn4)ncc3C2)c1` [Example 43, 2-pyrimidin-2-yl-6-[3-(trifluoromethoxy)phenyl]-7,8-dihydro-5H-pyrido[4,3-d]pyrimidine], the IC50 was found to be 1860 nM.

`COC(=O)c1cc(F)cc(N2CCc3nc(-c4ncccn4)ncc3C2)c1` [Example 102, methyl 3-fluoro-5-(2-pyrimidin-2-yl-7,8-dihydro-5H-pyrido[4,3-d]pyrimidin-6-yl)benzoate]: the IC50 came out at 11900 nM.

In the case of `Clc1ccc(N2CCc3nc(-c4ccccn4)ncc3C2)cc1` [Example 45, 6-(4-chlorophenyl)-2-(2-pyridyl)-7,8-dihydro-5H-pyrido[4,3-d]pyrimidine], the IC50 was found to be 3230 nM.

As to `COc1cc(Cl)cc(N2CCc3nc(-c4ncccn4)ncc3C2)n1` [Example 115, 6-(4-chloro-6-methoxy-2-pyridyl)-2-pyrimidin-2-yl-7,8-dihydro-5H-pyrido[4,3-d]pyrimidine], the IC50 came out at 352 nM.

As for `COc1cc(N2CCc3nc(-c4ncccn4)ncc3C2)cc(Cl)n1` [Example 116, 6-(2-chloro-6-methoxy-4-pyridyl)-2-pyrimidin-2-yl-7,8-dihydro-5H-pyrido[4,3-d]pyrimidine], the IC50 is 530 nM.

As to `COc1cc(N2CCc3nc(-c4ccncn4)ncc3C2)cc(F)c1F` [Example 29, 6-(3,4-difluoro-5-methoxy-phenyl)-2-pyrimidin-4-yl-7,8-dihydro-5H-pyrido[4,3-d]pyrimidine], the IC50 came out at 4160 nM.

In the case of `COCCCOc1cc(N2CCc3nc(-c4ccccn4)ncc3C2)cc(F)c1F` [Example 19, 6-[3,4-difluoro-5-(3-methoxypropoxy)phenyl]-2-(2-pyridyl)-7,8-dihydro-5H-pyrido[4,3-d]pyrimidine], the IC50 came to 461 nM.

For the compound `Fc1cc(C2CC2)cc(N2CCc3nc(-c4ncccn4)ncc3C2)c1` [Example 42, 6-(3-cyclopropyl-5-fluoro-phenyl)-2-pyrimidin-2-yl-7,8-dihydro-5H-pyrido[4,3-d]pyrimidine], the IC50 turned out to be 566 nM.

Turning to `CCC1CN(c2ccc(S(C)(=O)=O)cc2)Cc2cnc(-c3ccccn3)nc21` (stereo not drawn) [Example 7, 8-ethyl-6-(4-methylsulfonylphenyl)-2-(2-pyridyl)-7,8-dihydro-5H-pyrido[4,3-d]pyrimidine], the IC50 was found to be 5170 nM.

In the case of `CCc1nc(-c2ccccn2)nc2c1CN(c1ccc(S(C)(=O)=O)cc1)CC2` [Example 86], the IC50 worked out at 22100 nM.

Turning to `COc1cc(F)c(F)cc1N1CCc2nc(-c3ccccn3)ncc2C1` [Example 27, 6-(4,5-difluoro-2-methoxy-phenyl)-2-(2-pyridyl)-7,8-dihydro-5H-pyrido[4,3-d]pyrimidine], the IC50 was determined as 3160 nM.

Regarding `c1ccc(-c2ncc3c(n2)CCN(c2cccnc2)C3)nc1` [Example 39, 2-(2-pyridyl)-6-(3-pyridyl)-7,8-dihydro-5H-pyrido[4,3-d]pyrimidine], the IC50 is 9120 nM.

On to `Clc1cc(N2CCc3nc(-c4ncccn4)ncc3C2)cc(Cl)n1` [Example 114, 6-(2,6-dichloro-4-pyridyl)-2-pyrimidin-2-yl-7,8-dihydro-5H-pyrido[4,3-d]pyrimidine], for which the IC50 was 1170 nM.

`CS(=O)(=O)c1ccc(N2CCc3nc(-c4ccccn4)nc(OCc4ccccc4)c3C2)cc1` [Example 83]: the IC50 was determined as 20000 nM.

On to `CCCOc1ccc(N2CCc3nc(-c4ccccn4)ncc3C2)cc1F` [Example 55, 6-(3-fluoro-4-propoxy-phenyl)-2-(2-pyridyl)-7,8-dihydro-5H-pyrido[4,3-d]pyrimidine], for which the IC50 amounted to 1180 nM.

Turning to `Fc1cc(N2CCc3nc(-c4ccccn4)ncc3C2)cc(OCc2ccccc2)c1F` [Example 20, 6-(3-benzyloxy-4,5-difluoro-phenyl)-2-(2-pyridyl)-7,8-dihydro-5H-pyrido[4,3-d]pyrimidine], the IC50 was 2840 nM.

As to `CCOc1ccc(N2CCc3nc(-c4ccccn4)ncc3C2)cc1F` [Example 54, 6-(4-ethoxy-3-fluoro-phenyl)-2-(2-pyridyl)-7,8-dihydro-5H-pyrido[4,3-d]pyrimidine], the IC50 amounted to 3910 nM.

`CS(=O)(=O)c1cccc(N2CCc3nc(-c4ccccn4)ncc3C2)c1` [Example 11, 6-(3-methylsulfonylphenyl)-2-(2-pyridyl)-7,8-dihydro-5H-pyrido[4,3-d]pyrimidine]: the IC50 came to 17400 nM.

`COc1cc(N2CCc3nc(-c4ncccn4)ncc3C2)cc(C(F)(F)F)c1` [Example 100, 6-[3-methoxy-5-(trifluoromethyl)phenyl]-2-pyrimidin-2-yl-7,8-dihydro-5H-pyrido[4,3-d]pyrimidine]: the IC50 was determined as 278 nM.

Regarding `COc1cc(N2CCc3nc(-c4ccccn4)ncc3C2)ccc1F` [Example 90, 6-(4-fluoro-3-methoxy-phenyl)-2-(2-pyridyl)-7,8-dihydro-5H-pyrido[4,3-d]pyrimidine], the IC50 worked out at 933 nM.
